Where only a bound is given, the exact number is not on record here.

The target in the assay is T1, complement factor B (Homo sapiens, UniProt P00751).
T1 construct: from tissue; host or cells: normal human serum from healthy volunteers
T1 sequence (P00751 26-764): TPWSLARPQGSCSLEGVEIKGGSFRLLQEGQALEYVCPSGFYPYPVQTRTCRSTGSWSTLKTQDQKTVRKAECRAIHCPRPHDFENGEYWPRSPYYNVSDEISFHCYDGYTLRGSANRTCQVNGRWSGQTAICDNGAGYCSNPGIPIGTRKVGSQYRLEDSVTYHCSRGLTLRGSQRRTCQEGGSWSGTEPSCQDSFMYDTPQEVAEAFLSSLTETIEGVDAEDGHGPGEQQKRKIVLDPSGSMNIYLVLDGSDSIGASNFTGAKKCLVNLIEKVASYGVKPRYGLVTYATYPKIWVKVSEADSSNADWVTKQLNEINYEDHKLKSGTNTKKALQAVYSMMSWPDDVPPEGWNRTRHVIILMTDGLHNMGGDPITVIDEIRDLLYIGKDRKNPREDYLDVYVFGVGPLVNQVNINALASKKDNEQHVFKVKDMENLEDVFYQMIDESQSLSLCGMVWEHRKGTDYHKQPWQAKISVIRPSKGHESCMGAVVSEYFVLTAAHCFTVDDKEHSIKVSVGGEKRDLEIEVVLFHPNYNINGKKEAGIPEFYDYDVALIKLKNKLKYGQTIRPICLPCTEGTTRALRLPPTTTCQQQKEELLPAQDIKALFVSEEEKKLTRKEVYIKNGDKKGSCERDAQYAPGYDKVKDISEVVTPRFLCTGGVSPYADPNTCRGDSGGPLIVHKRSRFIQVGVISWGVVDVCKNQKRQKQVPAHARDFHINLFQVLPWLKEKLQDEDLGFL
Nature of the assay: Complement hemolytic activity assay (lysis of rabbit erythrocytes by normal human serum). Format: cell-based. The conditions noted are these: normal human serum in GVB0 buffer with 10 mM Mg-EGTA, 37° C., A415. How it is done:
4. Complement Hemolytic Activity Assay
The hemolysis experiment was carried out by referring to the description in Xuan Yuan et al., Haematologica. […] Prior to the experiment, the optimal concentration of normal human serum (NHS) required to achieve 100% lysis of rabbit erythrocytes (REs) was obtained by titration testing. […] A GVB0 buffer containing 10 mM Mg-EGTA and containing NHS and RE but no test compound was used as a positive control group (100% lysis). A GVB0 buffer containing 10 mM Mg-EGTA and containing inactivated NHS (heated at 56° C. for 30 min or at 65° C. for 5 min) and RE but no test compound was used as a negative control group (0% lysis). The samples were centrifuged at 2000 g for 5 min, and the supernatant was collected. Absorbance at 415 nm (A415) was measured using a microplate reader (Molecular Devices, SpectraMax i3X). IC50 values were calculated from percent hemolysis as a function of test compound concentration by non-linear regression.
In turn, `CCO[C@H]1CCN(Cc2c(OC)cc(C(F)(F)F)c3[nH]ccc23)[C@H](c2ccc(C(=O)O)cc2)C1` [Example 11] registered an IC50 above 5000 nM. The same measure for `CCO[C@H]1CCN(Cc2c(OC)cc(C)c3occc23)[C@H](c2ccc(C(=O)O)cc2)C1` [Example 10]: 1300 nM; for `CCO[C@H]1CCN(Cc2c(OC)cc(C)c3c2CCC3)[C@H](c2ccc(C(=O)O)cc2)C1` [Example 8]: above 5000 nM. The same measure for `CCO[C@H]1CCN(Cc2c(OC)cc(C)c3[nH]ncc23)[C@H](c2ccc(C(=O)O)cc2)C1` [Example 5]: 1200 nM; for `CCO[C@H]1CCN(Cc2c(OC)cc(C3CC3)c3[nH]ccc23)[C@H](c2ccc(C(=O)O)cc2)C1` [Example 13]: 1000 nM; for `CCO[C@H]1CCN(Cc2c(OC)cc(C)c3ccccc23)[C@H](c2ccc(C(=O)O)cc2)C1` [Example 14]: above 5000 nM. Compound `CCO[C@H]1CCN(Cc2c(OC)cc(C)c3c2CCN3)[C@H](c2ccc(C(=O)O)cc2)C1` [Example 1] came in with an IC50 of 1500 nM. On to `CCO[C@H]1CCN(Cc2c(C)cc(C)c3ccccc23)[C@H](c2ccc(C(=O)O)cc2)C1` [Example 15], for which the IC50 is above 5000 nM. The compound `CCO[C@H]1CCN(Cc2c(OC)cc(C)c3[nH]nnc23)[C@H](c2ccc(C(=O)O)cc2)C1` [Example 6] came in with an IC50 above 5000 nM. `CCO[C@H]1CCN(Cc2c(OC)cc(C)c3[nH]cnc23)[C@H](c2ccc(C(=O)O)cc2)C1` [Example 4] displayed an IC50 of 900 nM. The same measure for `CCO[C@H]1CCN(Cc2c(OC)cc(C)c3c2CCC(=O)N3)[C@H](c2ccc(C(=O)O)cc2)C1` [Example 16]: above 5000 nM; for `CCO[C@H]1CCN(Cc2c(OC)cc(C#N)c3[nH]ccc23)[C@H](c2ccc(C(=O)O)cc2)C1` [Example 12]: above 5000 nM.

What is called IC50 is the point on the concentration scale where inhibition reaches its midpoint. High values mean lower potency, low ones higher potency.

Source of the values: patent publication US20230331710A1, “HETEROCYCLIC COMPOUND, PREPARATION METHOD AND USE THEREOF” (SHANGHAI MEIYUE BIOTECH DEVELOPMENT CO. LTD, priority 2020, published 2023).
